According to the SangsterLogP compilation:

Experiment: method code SF-GLC, from DOI: 10.1584/jpestics.5.553

SMILES	logP
CC(C)(C)OC(=O)C(C(=O)OC(C)(C)C)=C1SCCS1	4.01
CSC(SC)=C(C(=O)OC(C)C)C(=O)OC(C)C	3.38
CCCCCCCOC(=O)C(C(=O)OCCCCCCC)=C1SCCS1	7.6
CC(C)OC(=O)C(C(=O)OC(C)C)=C1SCCS1=O (stereo not given)	1.6
CCCCCOC(=O)C(C(=O)OCCCCC)=C1SCCS1	5.6

Now from value to compound:

logP	SMILES
2.9	CCOC(=O)C(C(=O)OC(C)C)=C1SCCS1
4.6	CCCCOC(=O)C(C(=O)OCCCC)=C1SCCS1
2.45	CCOC(=O)C(C(=O)OCC)=C1SCCS1
1.51	COC(=O)C(C(=O)OC)=C1SCCS1
3.38	CCCOC(=O)C(C(=O)OCCC)=C1SCCS1
